Measurements taken from patent US12201608B2, “Methods for treating Parkinson's disease by administering resiniferatoxin” (Sorrento Therapeutics, Inc., priority 2018, dated 2025).
“Also recorded” adds a separate entry of the source.

What was measured:
Assay type in all cases: in vivo, C57Bl/6J male mice
[1] = Body weight monitoring in AAV-A53T / AAV-Null infused mice; settings: single intrathecal 0.04 μg or 0.125 μg, 7 or 14 days after AAV-A53T or AAV-Null infusion, 8 week study, two-way ANOVA
Protocol: (§1) For this study, a total of 110 male C57Bl/6J mice two months of age were infused with either AAV-A53T (90 mice) or AAV-Null (20 mice) into substantia nigra unilaterally to induce PD-like pathology or to serve as sham controls, respectively. Mice infused with AAV-Null (empty) vector (“sham-infused” mice) were used in order to control for the effect of the viral infusion. After 7 or 14 days of AAV-A53T mediated disease model induction, the mice were treated with RTX (0.04 μg or 0.125 μg) (5 μL volume, prepared from a 25 μg/ml RTX solution containing Polysorbate 80 at 0.03% w/v, dextrose at 0.05% w/v, Phosphate Buffer at 30 mM, and NaCl 0.54% w/v, pH 7.2, and diluted in saline as needed) by single intrathecal infusion at lumbar spinal cord area. One AAV-Null and AAV-A53T infused group per each time point were treated with vehicle instead of RTX.
(§2) The mice were then treated with RTX or vehicle by intrathecal infusion 7 or 14 days after AAV infusion. […]
Body weight of the animals was monitored two times per week. […] Dopamine and its metabolites were analyzed from ipsilateral and contralateral striata by high performance liquid chromatography (HPLC).
Body weight of the mice was measured twice-per week (on Mondays and Fridays) for the whole study duration.

[2] = system: AAV-A53T mouse model of Parkinson's Disease-like (PD) pathology; assay: Fine motor kinematic gait analysis 7 weeks after AAV infusion; settings: for overall gait analysis score: vs AAV1/2-A53T Vehicle
Protocol: as §1
The mice were then treated with RTX or vehicle by intrathecal infusion 7 or 14 days after AAV infusion. The mice were assigned to treatment groups as follows: • Group 1: 10 male mice sham-infused with AAV-null, and administered vehicle at D7. • Group 2: 15 male mice infused with AAV-A53T, and administered vehicle at D7. • Group 3: 15 male mice infused with AAV-A53T, and administered 0.04 μg of RTX at D7. • Group 4: 15 male mice infused with AAV-A53T, and administered 0.125 μg of RTX at D7. • Group 5: 10 male mice sham-infused with AAV-null, and administered vehicle at D14. • Group 6: 15 male mice infused with AAV-A53T, and administered vehicle at D14. • Group 7: 15 male mice infused with AAV-A53T, and administered 0.04 μg of RTX at D14. • Group 8: 15 male mice infused with AAV-A53T, and administered 0.125 μg of RTX at D14.
The fine motor skills of the mice were evaluated 7 weeks post infusion (MotoRater, TSE Systems, Homburg, Germany) using walking mode. On the day of testing the mice were marked in appropriate points of body, such as joints of limbs and parts of tail to ease the data analysis process. The movement data was captured using a high-speed camera (300 frames/second) from three different dimensions, from below and both sides. Different gait patterns and movements were analyzed using a custom-made automated analysis system. The analyzed parameters include: 1) general gait pattern parameters (stride time and speed, step width, stance and swing time during a stride, interlimb coordination), 2) body posture and balance (toe clearance, iliac crest and hip height, hind limb protraction and retraction, tail position and movement), and 3) fine motor skills (swing speed during a stride, jerk metric during swing phase, angle ranges and deviations of different joints, vertical and horizontal head movement).
The gait parameters always have several (and complex) inter-correlations. For example, a shorter stride duration and longer step lengths lead to higher speed. Different “gait features”, which are manifested in sets of highly correlating parameters, can be identified using Principal Component Analysis (PCA). Principal Component Analysis is a statistical tool to compact the information in a multivariate data set, reveal correlations between original variables, and ultimately, create a small set of new and sensitive uncorrelated parameters, the principal components (PC).
PCA is a linear transformation based on principal component coefficients and eigenvectors. The transformed, new, uncorrelated variables are called the PC scores. The first principal component (PC) corresponds to such linear combination of data which has the largest possible variance. The second PC has again the largest possible variance of what is left when the proportion of the first PC is discarded, and so on for the rest of the PCs. The eigen vectors also reveal information about the internal structure of the data, i.e., mutually correlated parameters. Each PC score represent combined information of all the parameters which are emphasized in the corresponding PC. […]

[3] = Adverse effects and mortality monitoring in the main AAV-A53T study
Protocol: as §1, §2
Animals were monitored daily by laboratory personnel. […]

[4] = D7 both doses, vs AAV-A53T Vehicle, p<0.05 unpaired t-test
[5] = D7 high dose, vs AAV-A53T Vehicle, p<0.05 unpaired t-test

## C=C(C)[C@]12C[C@@H](C)[C@@]34O[C@](Cc5ccccc5)(O[C@@H]1[C@@H]3C=C(COC(=O)Cc1ccc(O)c(OC)c1)C[C@]1(O)C(=O)C(C)=C[C@@H]41)O2 [RTX, Resiniferatoxin]
[1]
  body weight: steady weight gain was observed similarly in vehicle and RTX treated groups; also recorded: No significant differences between the groups
[1]; listed as resiniferatoxin
  body weight: No significant differences between the groups
[2]; [4]
  diagonal gait: significantly recovered
  hip ROM: significantly recovered
[2]; [5]
  hind limb stance time: significantly recovered
  hip ROM deviation: significantly recovered
  homolateral and homologous gait: significantly recovered
  minimum knee angle: significantly recovered
  single and double support: significantly recovered
  stride time: significantly recovered
  support diagonal: significantly recovered
  support three: significantly recovered
[2]; D14 both doses, vs AAV-A53T Vehicle, p<0.05 unpaired t-test
  head rotation: significantly recovered
[2]; D14 high dose, vs AAV-A53T Vehicle, p<0.05 unpaired t-test
  hip ROM: significantly recovered
[2]; RTX 0.04 μg at D7, Dunnett's test p=0.0063
  overall gait analysis score: significant treatment effect; also recorded: significantly improved
[2]; RTX 0.125 μg at D7, Dunnett's test p=0.0011
  overall gait analysis score: significant treatment effect; also recorded: significantly improved
[2]; both RTX doses at D14, p>0.05 one-way ANOVA
  overall gait analysis score: statistically non-significant trend towards the respective AAV-Null group; also recorded: statistically non-significant trending effect; also recorded: not statistically significant; also recorded: trend towards the AAV1/2-Null group
[2]; early RTX treatment (D7), analyzed 7 weeks after AAV infusion
  recovery of motor functions / motor skills: significant rescuing effect; also recorded: dose-dependent recovery of motor functions
[3]; 6 mice out of 110 lost including vehicle-treated mice, attributed to surgical procedure and anesthesia
  mortalities, distribution between groups: evenly spread between the vehicle and both RTX low and high dose groups
[3]; low or high dose (0.04 μg or 0.125 μg), D7 or D14
  adverse effects of intrathecal RTX administration: No significant adverse effects
